Experimental data: ChEMBL document CHEMBL1811764, “Structure-activity studies of RNA-binding oxazolidinone derivatives” (Bioorg Med Chem Lett, 2011)

What was measured:
Nucleic Acid [1] = assay: Binding affinity to Bacillus subtilis AM1A antiterminator model RNA assessed as increase in fluorescence at 10 uM by FRET assay relative to control; format: nucleic-acid assay
Nucleic Acid [2] = assay: Binding affinity to Bacillus subtilis AM1A C11U antiterminator model RNA variant assessed as increase in fluorescence by FRET assay relative to control; format: nucleic-acid assay; design: concentration or dose not given beside the values

Row | Compound | Activity (Nucleic Acid [1]) | Activity (Nucleic Acid [2])
1 | Cc1cccc(C(C)(C)C)c1NC(=O)OC[C@H]1OC(=O)N[C@@H]1CN1CCN(c2ccccc2)CC1 | 14.8% | 15.4%
2 | COc1cccc(C(=O)OC[C@H]2OC(=O)N[C@@H]2CN2CCN(c3ccccc3)CC2)c1 | 23.8% | 24.7%
3 | O=C(Nc1ccccc1)OC[C@H]1OC(=O)N[C@@H]1CN1CCN(c2ccccc2)CC1 | 8.4% | 11.2%
4 | N#Cc1ccccc1C(=O)OC[C@H]1OC(=O)N[C@@H]1CN1CCN(c2ccccc2)CC1 | 7.3% | 16.7%
5 | COc1cccc(CC(=O)OC[C@H]2OC(=O)N[C@@H]2CN2CCN(c3ccccc3)CC2)c1 | 18.9% | 19.6%
6 | O=C(CCCC1CCCCC1)OC[C@H]1OC(=O)N[C@@H]1CN1CCN(c2ccccc2)CC1 | 31.8% | 29%
7 | O=C(CCCCCc1ccccc1)OC[C@H]1OC(=O)N[C@@H]1CN1CCN(c2ccccc2)CC1 | 32.6% | 30.9%
8 | CCc1ccc(NC(=O)OC[C@H]2OC(=O)N[C@@H]2CN2CCN(c3ccccc3)CC2)cc1 | 18.3% | 19.1%
9 | O=C1N[C@H](CN2CCN(c3ccccc3)CC2)[C@@H](COC(=O)c2ccccc2Cl)O1 | 30.4% | 28.8%
10 | O=C1N[C@H](CN2CCN(c3ccccc3)CC2)[C@@H](COC(=O)c2c(Cl)cccc2Cl)O1 | 15.3% | 16.2%
11 | O=C1N[C@H](CN2CCN(c3ccccc3)CC2)[C@@H](COC(=O)c2ccccc2Oc2ccccc2)O1 | 30.8% | 26.5%
12 | Cc1ccc(C(=O)OC[C@H]2OC(=O)N[C@@H]2CN2CCN(c3ccccc3)CC2)cc1 | 27.4% | 27.5%
13 | O=C(COc1ccccc1)OC[C@H]1OC(=O)N[C@@H]1CN1CCN(c2ccccc2)CC1 | 9.5% | 9.4%
14 | O=C1N[C@H](CN2CCN(c3ccccc3)CC2)[C@@H](COC(=O)c2ccco2)O1 | 6.4% | 14.7%
15 | CC(C)(C)OC(=O)NCCCCC(=O)OC[C@H]1OC(=O)N[C@@H]1CN1CCN(c2ccccc2)CC1 | 29.4% | 27.7%
16 | CC(C)=CCCC(C)CC(=O)OC[C@H]1OC(=O)N[C@@H]1CN1CCN(c2ccccc2)CC1 (stereo partly specified) | 38.9% | 42.4%
17 | O=C(CCc1ccccc1)OC[C@H]1OC(=O)N[C@@H]1CN1CCN(c2ccccc2)CC1 | 20.6% | 26.1%
18 | O=C(CC1CC2CCC1C2)OC[C@H]1OC(=O)N[C@@H]1CN1CCN(c2ccccc2)CC1 (stereo partly specified) | 29.5% | 27.4%
19 | O=C1N[C@H](CN2CCN(c3ccccc3)CC2)[C@@H](COC(=O)c2ccccc2)O1 | 14.8% | 18.6%
20 | CCCNC(=O)OC[C@H]1OC(=O)N[C@@H]1CN1CCN(c2ccccc2)CC1 | 10.3% | 9.6%
21 | O=C(Nc1cccc([N+](=O)[O-])c1)OC[C@H]1OC(=O)N[C@@H]1CN1CCN(c2ccccc2)CC1 | -1.1% | 0.2%
22 | O=C1N[C@H](CN2CCN(c3ccccc3)CC2)[C@@H](COC(=O)C2CCCCC2)O1 | 19.5% | 20.7%
23 | O=C1N[C@H](CN2CCN(c3ccccc3)CC2)[C@@H](COC(=O)c2ccccc2F)O1 | 18.5% | 20.4%
24 | CC(C)(C)OC(=O)N[C@H](C(=O)OC[C@H]1OC(=O)N[C@@H]1CN1CCN(c2ccccc2)CC1)c1ccccc1 | 26.7% | 19.4%
25 | O=C(Cc1ccc(Cl)c(Cl)c1)OC[C@H]1OC(=O)N[C@@H]1CN1CCN(c2ccccc2)CC1 | 29.1% | 28.9%
26 | O=C(Cc1ccc([N+](=O)[O-])cc1)OC[C@H]1OC(=O)N[C@@H]1CN1CCN(c2ccccc2)CC1 | 9.1% | 16.5%
27 | O=C(Cc1ccccc1)OC[C@H]1OC(=O)N[C@@H]1CN1CCN(c2ccccc2)CC1 | 8.5% | 15.9%

Row | Compound | Activity (Nucleic Acid [1]) | Activity (Nucleic Acid [2])
28 | O=C1N[C@H](CN2CCN(c3ccccc3)CC2)[C@@H](COC(=O)c2ccccc2I)O1 | 28.6% | 22.4%
29 | O=C(Nc1ccc([N+](=O)[O-])cc1)OC[C@H]1OC(=O)N[C@@H]1CN1CCN(c2ccccc2)CC1 | -1.8% | -4.9%
30 | CN(C)c1cccc(C(=O)OC[C@H]2OC(=O)N[C@@H]2CN2CCN(c3ccccc3)CC2)c1 | 24.6% | 27.1%
31 | CC(C)CCC(=O)OC[C@H]1OC(=O)N[C@@H]1CN1CCN(c2ccccc2)CC1 | 15% | 20.2%
32 | CCCCCCNC(=O)OC[C@H]1OC(=O)N[C@@H]1CN1CCN(c2ccccc2)CC1 | 17.4% | 23.7%
33 | O=C(NCc1ccccc1)OC[C@H]1OC(=O)N[C@@H]1CN1CCN(c2ccccc2)CC1 | 6.1% | 11.7%
34 | O=C(Cc1ccc(-c2ccccc2)cc1)OC[C@H]1OC(=O)N[C@@H]1CN1CCN(c2ccccc2)CC1 | 25.3% | 22.3%
35 | COc1ccc(NC(=O)OC[C@H]2OC(=O)N[C@@H]2CN2CCN(c3ccccc3)CC2)cc1 | 7.8% | 7.7%
36 | CCCCCCCC(=O)OC[C@H]1OC(=O)N[C@@H]1CN1CCN(c2ccccc2)CC1 | 18.1% | 25.4%
37 | CCCC(=O)OC[C@H]1OC(=O)N[C@@H]1CN1CCN(c2ccccc2)CC1 | 10.1% | 19.7%
38 | Cc1c(C(=O)OC[C@H]2OC(=O)N[C@@H]2CN2CCN(c3ccccc3)CC2)cccc1[N+](=O)[O-] | 23.3% | 24.5%
39 | O=C1N[C@H](CN2CCN(c3ccccc3)CC2)[C@@H](COC(=O)c2ccc([N+](=O)[O-])cc2)O1 | 13.1% | 15.2%
40 | CC(C)(C)NC(=O)OC[C@H]1OC(=O)N[C@@H]1CN1CCN(c2ccccc2)CC1 | 8.9% | 8.7%
41 | CCCCCC(=O)OC[C@H]1OC(=O)N[C@@H]1CN1CCN(c2ccccc2)CC1 | 15.5% | 21%
42 | O=C1N[C@H](CN2CCN(c3ccccc3)CC2)[C@@H](COC(=O)c2ccc(Cl)cc2)O1 | 29.1% | 22.8%
43 | CC(C)CC(=O)OC[C@H]1OC(=O)N[C@@H]1CN1CCN(c2ccccc2)CC1 | 9.5% | 14%
44 | CC(=O)c1ccc(NC(=O)OC[C@H]2OC(=O)N[C@@H]2CN2CCN(c3ccccc3)CC2)cc1 | 7.7% | 13.4%
45 | COc1ccc(CC(=O)OC[C@H]2OC(=O)N[C@@H]2CN2CCN(c3ccccc3)CC2)cc1 | 13.7% | 18.8%
46 | CCCCNC(=O)OC[C@H]1OC(=O)N[C@@H]1CN1CCN(c2ccccc2)CC1 | 10.5% | 14%
47 | CC(C)(C)OC(=O)N[C@@H](C(=O)OC[C@H]1OC(=O)N[C@@H]1CN1CCN(c2ccccc2)CC1)c1ccccc1 | 39.6% | 42.6%
48 | O=C1N[C@H](CN2CCN(c3ccccc3)CC2)[C@@H](COC(=O)Oc2ccccc2)O1 | 12.4% | 21.3%
49 | CCCCCc1ccc(NC(=O)OC[C@H]2OC(=O)N[C@@H]2CN2CCN(c3ccccc3)CC2)cc1 | 10.6% | 11.1%
50 | O=C1N[C@H](CN2CCN(c3ccccc3)CC2)[C@@H](COC(=O)c2cc(OCc3ccccc3)c(OCc3ccccc3)c(OCc3ccccc3)c2)O1 | 14.3% | 18.6%
51 | O=C(Nc1ccc(Cl)c(Cl)c1)OC[C@H]1OC(=O)N[C@@H]1CN1CCN(c2ccccc2)CC1 | 8.9% | 14.7%
52 | CC(C)(C)C(=O)OC[C@H]1OC(=O)N[C@@H]1CN1CCN(c2ccccc2)CC1 | 7.1% | 13.2%
53 | Cc1cccc(NC(=O)OC[C@H]2OC(=O)N[C@@H]2CN2CCN(c3ccccc3)CC2)c1 | 16.8% | 26.7%
